Legend:
Format in all cases: cell-based
[1] = test system: HeLa cells; assay: Cell penetrating efficiency of rhodamine-labelled TCTP-derived peptides, microplate fluorescence reader
Protocol: N-terminus of each peptides was labeled with fluorescence dye, rhodamine and C-terminus was protected. Peptide purity (>95%) was determined by HPLC. Synthesis of the peptides was requested to PEPTRON, Inc.
HeLa cell line (ATCC) was propagated in DMEM (GIBCO) supplemented with 10% FBS (GIBCO) and 100 units/mL penicillin-streptomycin. Cells were grown in a 5% CO2 incubator at 37° C.
HeLa cells were cultured in 48-well plate until they were 70˜80% grown up before a day of the experiment. The cells were washed with DMEM of 37° C. twice, and TCTP-derived peptides synthesized in Example 2-1) were treated to the culture medium in a dose dependent manner (0, 1, 5, 10, 50, 100 μM), then the cells was incubated for 15 minutes or 2 hours in an CO2 incubator at 37° C.
After the incubation, the cells were washed in cool PBS three times and immediately measured by a microplate fluorescence reader (BIO-TEK instruments, Inc., Vermont, USA) at emission 530 nm and excitation 590 nm for a measurement of rhodamine of intracellular uptake marker. The sensitivity of reader was set at 100 as a basic mode, but was lowered to 75 if the fluorescent signals were too strong. All experiments were conducted in triplet repeats for reproducibility (FIG. 2 and FIG. 3).

[2] = test system: HeLa cells; assay: Cell penetrating activity of FITC-labelled mutant peptides, mean fluorescence intensity by FACS; settings: 2 hours, FACS
Protocol: N-terminus of each peptide was labeled with fluorescence dye, FITC and C-terminus was protected. Peptide purity (>95%) was determined by HPLC. Synthesis of the peptides of the present invention was requested to PEPTRON, Inc.
HeLa cell line was propagated in DMEM supplemented with 10% FBS and 100 units/mL penicillin-streptomycin. Cells were grown in a 5% CO2 incubator at 37° C.
HeLa cells were cultured in 6-well plate until they were 70˜80% grown up before a day of the experiment. The cells were washed with DMEM of 37° C. twice, and TCTP-derived peptides synthesized in Example 5-1) were treated to the culture medium in a dose dependent manner (0, 1, 10, 100 μM), then the cells was incubated for 2 hours in an CO2 incubator at 37° C.,
After the incubation, the cells were washed in cool PBS two times and treated with 1 mg/ml trypsin for 15 min at 37° C. to digest peptides attached on cell membrane and washed in PBS twice again. Then, the cells were analyzed by FACS at emission 510 nm and excitation 530 nm for a measurement of FITC of intracellular uptake marker (FIGS. 7, 8 and 9). Intracellular translocation efficiency of mutant peptides, TCTP-CPP#1-35(SEQ ID Nos.: 20-54) was compared to wild type(WT), TCTP(1-10)(SEQ ID No.: 1) and control peptide, TAT(48-57).

[3] = test system: HeLa cells; settings: treated for 48 hours; concentration not restated, 100 μM implied
Protocol: To confirm whether cell penetrating activity of the peptides of present invention was due to membrane weakness as a result of cytotoxicity, we measured cytotoxicity as follows. HeLa cells were cultured in 96-well plate until they were 70% grown up before a day of the experiment. Control TAT 48-57 and the mutant peptides at concentrations of 0, 1, 10, 100 μM were treated to DMEM supplemented with 10% FBS for 24 and 48 hours. After 2 hours in addition of 10 μl of CCK-8 to each well, absorbance at 450 nm was measured by KC4 plate reader(FIGS. 10, 11 and 12). As a result of toxicity at 100 μM for 24 hours, cytotoxicity of SEQ ID No.: 1, TCTP(1-10) was about 14% compared with control, and cytotoxicities of the other peptides, TCTP-CPP#3, 7 and 8 were insignificant considering standard deviation. When treated for 48 hours, all peptides had no cytotoxicity at 1 and 10 μM while cytotoxicities of TAT, TCTP(1-10), TCTP-CPP#3, 7 and 8 were about 53.8, 28.3, 46.2, 8.2 and 25.6%, respectively. […] Also, all of TCTP-CPP#27-35 had no cytotoxicity at 1 μM and 10 μM but had cytotoxicity at 100 μM.

GRKKRRQRRR (Human immunodeficiency virus; (1)..(10) 48-57 amino acid residue of TAT) [TAT(48-57), Control peptide, well-known PTD from HIV-1 TAT, reference compound]
intracellular translocation, dependence on concentration ([1]; 0-100 μM, 15 minutes or 2 hours): transduced into cell in a dose and time-dependent manner | concentration at which translocation was saturated ([1]; 2 hour treatment (FIG. 3)): ≥ 1 µM | mean fluorescence intensity (MFI) relative to WT, MFI of WT at 10 μM set to 1 ([2]; peptide at 10 μM): 6.1 times | mean fluorescence intensity (MFI) relative to WT ([2]; peptide at 100 μM): 94.75 times | cytotoxicity [3]: about 53.8%
